In the supplement of paper PMC10307832:

How the values were obtained:
Assay in all cases: relative viability (nuclei count vs DMSO), 5 days (fraction); higher = more cells survive
COR-L23 = system: COR-L23
Outline: (§1)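 Lung cancer cell lines in 1536-well plates got either a single drug or a fixed anchor-drug dose together with five library-drug doses (not always all listed) in √10 steps, by pin tool, on the day after seeding. Nuclei were counted after 5 days, and relative viability is the treated-to-vehicle ratio of nuclei counts. Values are medians of duplicate plates.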

EMC-BAC-2 = system: EMC-BAC-2
Outline: as §1

EPLC-272H = system: EPLC-272H
Outline: as §1

H3255 = system: H3255
Outline: as §1

HCC-44 = system: HCC-44
Outline: as §1

LU99A = system: LU99A
Outline: as §1

NCI-H1395 = system: NCI-H1395
Outline: as §1

NCI-H1563 = system: NCI-H1563
Outline: as §1

NCI-H1651 = system: NCI-H1651
Outline: as §1

NCI-H1793 = system: NCI-H1793
Outline: as §1

NCI-H1944 = system: NCI-H1944
Outline: as §1

NCI-H2023 = system: NCI-H2023
Outline: as §1

NCI-H2085 = system: NCI-H2085
Outline: as §1

NCI-H2087 = system: NCI-H2087
Outline: as §1

NCI-H2405 = system: NCI-H2405
Outline: as §1

NCI-H520 = system: NCI-H520
Outline: as §1

NCI-H650 = system: NCI-H650
Outline: as §1

NCI-H838 = system: NCI-H838
Outline: as §1

SK-MES-1 = system: SK-MES-1
Outline: as §1

CC(=O)O[C@@]12CO[C@@H]1C[C@H](O)[C@@]1(C)C(=O)[C@H](O)C3=C(C)[C@@H](OC(=O)[C@H](O)[C@@H](NC(=O)OC(C)(C)C)c4ccccc4)C[C@@](O)([C@@H](OC(=O)c4ccccc4)[C@H]21)C3(C)C [Docetaxel] + CS(=O)(=O)CCNCc1ccc(-c2ccc3ncnc(Nc4ccc(OCc5cccc(F)c5)c(Cl)c4)c3c2)o1 [Lapatinib] (partner 2 µM)
relative viability (COR-L23; first compound 0.0002 µM): 0.993 | relative viability (COR-L23; first compound 0.000632 µM): 0.843 | relative viability (COR-L23; first compound 0.002 µM): 0.625 | relative viability (COR-L23; first compound 0.006325 µM): 0.14 | relative viability (COR-L23; first compound 0.02 µM): 0.107 | relative viability (EMC-BAC-2; first compound 0.0002 µM): 0.735 | relative viability (EMC-BAC-2; first compound 0.000632 µM): 0.613 | relative viability (EMC-BAC-2; first compound 0.002 µM): 0.337 | relative viability (EMC-BAC-2; first compound 0.006325 µM): 0.278 | relative viability (EMC-BAC-2; first compound 0.02 µM): 0.209 | relative viability (EPLC-272H; first compound 0.0002 µM): 1.04 | relative viability (EPLC-272H; first compound 0.000632 µM): 0.76 | relative viability (EPLC-272H; first compound 0.002 µM): 0.199 | relative viability (EPLC-272H; first compound 0.006325 µM): 0.0933 | relative viability (EPLC-272H; first compound 0.02 µM): 0.114 | relative viability (H3255; first compound 0.0002 µM): 0.227 | relative viability (H3255; first compound 0.002 µM): 0.223 | relative viability (H3255; first compound 0.006325 µM): 0.19 | relative viability (H3255; first compound 0.02 µM): 0.175 | relative viability (HCC-44; first compound 0.0002 µM): 0.936 | relative viability (HCC-44; first compound 0.000632 µM): 0.961 | relative viability (HCC-44; first compound 0.002 µM): 0.621 | relative viability (HCC-44; first compound 0.006325 µM): 0.22 | relative viability (HCC-44; first compound 0.02 µM): 0.115 | relative viability (LU99A; first compound 0.0002 µM): 0.799 | relative viability (LU99A; first compound 0.000632 µM): 0.424 | relative viability (LU99A; first compound 0.002 µM): 0.423 | relative viability (LU99A; first compound 0.006325 µM): 0.255 | relative viability (LU99A; first compound 0.02 µM): 0.188 | relative viability (NCI-H1395; first compound 0.0002 µM): 0.992 | relative viability (NCI-H1395; first compound 0.000632 µM): 0.954 | relative viability (NCI-H1395; first compound 0.002 µM): 0.775 | relative viability (NCI-H1395; first compound 0.006325 µM): 0.368 | relative viability (NCI-H1395; first compound 0.02 µM): 0.268 | relative viability (NCI-H1563; first compound 0.0002 µM): 0.969 | relative viability (NCI-H1563; first compound 0.000632 µM): 1.01 | relative viability (NCI-H1563; first compound 0.002 µM): 0.971 | relative viability (NCI-H1563; first compound 0.006325 µM): 0.747 | relative viability (NCI-H1563; first compound 0.02 µM): 0.581 | relative viability (NCI-H1651; first compound 0.0002 µM): 0.724 | relative viability (NCI-H1651; first compound 0.000632 µM): 0.496 | relative viability (NCI-H1651; first compound 0.002 µM): 0.161 | relative viability (NCI-H1651; first compound 0.006325 µM): 0.11 | relative viability (NCI-H1651; first compound 0.02 µM): 0.101 | relative viability (NCI-H1793; first compound 0.0002 µM): 0.569 | relative viability (NCI-H1793; first compound 0.000632 µM): 0.618 | relative viability (NCI-H1793; first compound 0.006325 µM): 0.315 | relative viability (NCI-H1793; first compound 0.02 µM): 0.216 | relative viability (NCI-H1944; first compound 0.0002 µM): 0.545 | relative viability (NCI-H1944; first compound 0.000632 µM): 0.667 | relative viability (NCI-H1944; first compound 0.002 µM): 0.579 | relative viability (NCI-H1944; first compound 0.006325 µM): 0.242 | relative viability (NCI-H1944; first compound 0.02 µM): 0.112 | relative viability (NCI-H2023; first compound 0.0002 µM): 0.722 | relative viability (NCI-H2023; first compound 0.000632 µM): 0.408 | relative viability (NCI-H2023; first compound 0.002 µM): 0.135 | relative viability (NCI-H2023; first compound 0.006325 µM): 0.1 | relative viability (NCI-H2023; first compound 0.02 µM): 0.0578 | relative viability (NCI-H2085; first compound 0.0002 µM): 0.787 | relative viability (NCI-H2085; first compound 0.000632 µM): 0.71 | relative viability (NCI-H2085; first compound 0.002 µM): 0.507 | relative viability (NCI-H2085; first compound 0.006325 µM): 0.462 | relative viability (NCI-H2085; first compound 0.02 µM): 0.342 | relative viability (NCI-H2087; first compound 0.0002 µM): 0.831 | relative viability (NCI-H2087; first compound 0.000632 µM): 0.678 | relative viability (NCI-H2087; first compound 0.002 µM): 0.351 | relative viability (NCI-H2087; first compound 0.006325 µM): 0.269 | relative viability (NCI-H2087; first compound 0.02 µM): 0.137 | relative viability (NCI-H2405; first compound 0.0002 µM): 1.03 | relative viability (NCI-H2405; first compound 0.000632 µM): 0.623 | relative viability (NCI-H2405; first compound 0.002 µM): 0.557 | relative viability (NCI-H2405; first compound 0.006325 µM): 0.488 | relative viability (NCI-H2405; first compound 0.02 µM): 0.345 | relative viability (NCI-H520; first compound 0.0002 µM): 0.856 | relative viability (NCI-H520; first compound 0.000632 µM): 0.684 | relative viability (NCI-H520; first compound 0.002 µM): 0.246 | relative viability (NCI-H520; first compound 0.006325 µM): 0.162 | relative viability (NCI-H520; first compound 0.02 µM): 0.12 | relative viability (NCI-H650; first compound 0.0002 µM): 0.554 | relative viability (NCI-H650; first compound 0.000632 µM): 0.384 | relative viability (NCI-H650; first compound 0.002 µM): 0.307 | relative viability (NCI-H650; first compound 0.02 µM): 0.168 | relative viability (NCI-H838; first compound 0.0002 µM): 0.963 | relative viability (NCI-H838; first compound 0.000632 µM): 0.63 | relative viability (NCI-H838; first compound 0.002 µM): 0.259 | relative viability (NCI-H838; first compound 0.006325 µM): 0.15 | relative viability (NCI-H838; first compound 0.02 µM): 0.106 | relative viability (SK-MES-1; first compound 0.0002 µM): 0.437 | relative viability (SK-MES-1; first compound 0.000632 µM): 0.633 | relative viability (SK-MES-1; first compound 0.002 µM): 0.378 | relative viability (SK-MES-1; first compound 0.02 µM): 0.159
